A word on the IC50: it is the concentration that gives 50% inhibition.

This experiment addresses T1, hROMK (hKir1.1) (Homo sapiens, UniProt P48048).
T1 construct: expressed in transfected cells
T1 sequence (P48048 1-391): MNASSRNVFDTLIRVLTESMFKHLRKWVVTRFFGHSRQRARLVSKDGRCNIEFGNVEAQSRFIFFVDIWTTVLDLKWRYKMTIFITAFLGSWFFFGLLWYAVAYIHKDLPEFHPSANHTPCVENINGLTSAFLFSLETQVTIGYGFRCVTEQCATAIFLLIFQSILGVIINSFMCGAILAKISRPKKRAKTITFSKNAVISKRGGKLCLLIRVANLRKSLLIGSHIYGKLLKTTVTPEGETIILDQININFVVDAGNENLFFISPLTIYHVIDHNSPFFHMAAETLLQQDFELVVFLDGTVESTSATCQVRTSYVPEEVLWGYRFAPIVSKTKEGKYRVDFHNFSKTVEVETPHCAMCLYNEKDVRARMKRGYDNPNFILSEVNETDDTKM
As to the kind of experiment: Thallium Flux Assay (ROMK channel functional thallium flux, FLIPR-Tetra). The experiment is classed as cell-based. Particulars: HEK293 cells stably expressing hROMK (hKir1.1); 30 min compound incubation. An outline of the steps: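 HEK293 cells stably expressing hKir1.1, loaded with FluxOR dye for 90 min, then preincubated with compound for 30 min at ambient temperature with 0.3 mM ouabain and probenecid. Stimulated with 3 mM thallium/0.3 mM potassium (final); fluorescence read ~10 min. Normalized to 3 μM reference ROMK inhibitor; IC50 from inhibition of flux.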

As for `CC1=C(N2CCC3(CCN(C[C@H](O)c4cc(-n5cnnn5)ccn4)CC3)C2=O)COC1=O` [Example 72, 8-{(2S)-2-hydroxy-2-[4-(1H-tetrazol-1-yl)pyridin-2-yl]ethyl}-2-(4-methyl-5-oxo-2,5-dihydrofuran-3-yl)-1-oxo-2-aza-8-azoniaspiro[4.5]decane], 40 nM corresponded to half-maximal inhibition (IC50).
Next, `CC1=C(N2CCC3(CCN(C[C@H](O)c4cccc(-n5cnnn5)n4)CC3)C2=O)COC1=O` [Example 73, 8-{(2S)-2-hydroxy-2-[6-(1H-tetrazol-1-yl)pyridin-2-yl]ethyl}-2-(4-methyl-5-oxo-2,5-dihydrofuran-3-yl)-1-oxo-2-aza-8-azoniaspiro[4.5]decane]: 170 nM; `CC1=C(N2CCC3(CCN(C[C@@H](O)c4cccc(-n5cnnn5)n4)CC3)C2=O)COC1=O` [Example 74, 8-{(2R)-2-hydroxy-2-[6-(1H-tetrazol-1-yl)pyridin-2-yl]ethyl}-2-(4-methyl-5-oxo-2,5-dihydrofuran-3-yl)-1-oxo-2-aza-8-azoniaspiro[4.5]decane]: 90 nM.
Next, `CC1=C(N2CCC3(CCN(C[C@H](O)c4cncc(-n5cnnn5)n4)CC3)C2=O)COC1=O` [Example 75, 8-{(2S)-2-hydroxy-2-[6-(1H-tetrazol-1-yl)pyrazin-2-yl]ethyl}-2-(4-methyl-5-oxo-2,5-dihydrofuran-3-yl)-1-oxo-2-aza-8-azoniaspiro[4.5]decane]: 440 nM; `CC1=C(N2CCC3(CCN(C[C@H](O)c4c(F)cc(-n5cnnn5)cc4F)CC3)C2=O)COC1=O` [Example 76, 8-{(2R)-2-[2,6-difluoro-4-(1H-tetrazol-1-yl)phenyl]-2-hydroxyethyl}-2-(4-methyl-5-oxo-2,5-dihydrofuran-3-yl)-1-oxo-2-aza-8-azoniaspiro[4.5]decane]: 20 nM; `C[C@H]1CC2(CCN(C[C@H](O)c3cnc(-n4cnnn4)cn3)CC2)C(=O)N1C1=CC(=O)OC1` [Example 77, (3S)-8-{(2S)-2-hydroxy-2-[5-(1H-tetrazol-1-yl)pyrazin-2-yl]ethyl}-3-methyl-1-oxo-2-(5-oxo-2,5-dihydrofuran-3-yl)-2-aza-8-azoniaspiro[4.5]decane]: 10 nM.
The figure for `C[C@H]1CC2(CCN(C[C@@H](O)c3cnc(-n4cnnn4)cn3)CC2)C(=O)N1C1=CC(=O)OC1` [Example 78, (3S)-8-{(2R)-2-hydroxy-2-[5-(1H-tetrazol-1-yl)pyrazin-2-yl]ethyl}-3-methyl-1-oxo-2-(5-oxo-2,5-dihydrofuran-3-yl)-2-aza-8-azoniaspiro[4.5]decane] is 10 nM; for `C[C@@H]1CC2(CCN(C[C@H](O)c3cnc(-n4cnnn4)cn3)CC2)C(=O)N1C1=CC(=O)OC1` [Example 79, (3R)-8-{(2S)-2-hydroxy-2-[5-(1H-tetrazol-1-yl)pyrazin-2-yl]ethyl}-3-methyl-1-oxo-2-(5-oxo-2,5-dihydrofuran-3-yl)-2-aza-8-azoniaspiro[4.5]decane] it is 100 nM; for `C[C@@H]1CC2(CCN(C[C@@H](O)c3cnc(-n4cnnn4)cn3)CC2)C(=O)N1C1=CC(=O)OC1` [Example 80, (3R)-8-{(2R)-2-hydroxy-2-[5-(1H-tetrazol-1-yl)pyrazin-2-yl]ethyl}-3-methyl-1-oxo-2-(5-oxo-2,5-dihydrofuran-3-yl)-2-aza-8-azoniaspiro[4.5]decane] it is 130 nM.
In turn, `C[C@H]1CC2(CCN(C[C@H](O)c3ccc(-n4cnnn4)nc3)CC2)C(=O)N1C1=CC(=O)OC1` [Example 81, (3S)-8-{(2R)-2-hydroxy-2-[6-(1H-tetrazol-1-yl)pyridin-3-yl]ethyl}-3-methyl-1-oxo-2-(5-oxo-2,5-dihydrofuran-3-yl)-2-aza-8-azoniaspiro[4.5]decane] yielded an IC50 of 10 nM.
Next, `C[C@H]1CC2(CCN(C[C@@H](O)c3ccc(-n4cnnn4)nc3)CC2)C(=O)N1C1=CC(=O)OC1` [Example 82, (3S)-8-{(2S)-2-hydroxy-2-[6-(1H-tetrazol-1-yl)pyridin-3-yl]ethyl}-3-methyl-1-oxo-2-(5-oxo-2,5-dihydrofuran-3-yl)-2-aza-8-azoniaspiro[4.5]decane]: 10 nM.
Next, `C[C@@H]1CC2(CCN(C[C@H](O)c3ccc(-n4cnnn4)nc3)CC2)C(=O)N1C1=CC(=O)OC1` [Example 83, (3R)-8-{(2R)-2-hydroxy-2-[6-(1H-tetrazol-1-yl)pyridin-3-yl]ethyl}-3-methyl-1-oxo-2-(5-oxo-2,5-dihydrofuran-3-yl)-2-aza-8-azoniaspiro[4.5]decane]: 10 nM.
`C[C@@H]1CC2(CCN(C[C@@H](O)c3ccc(-n4cnnn4)nc3)CC2)C(=O)N1C1=CC(=O)OC1` [Example 84, (3R)-8-{(2S)-2-hydroxy-2-[6-(1H-tetrazol-1-yl)pyridin-3-yl]ethyl}-3-methyl-1-oxo-2-(5-oxo-2,5-dihydrofuran-3-yl)-2-aza-8-azoniaspiro[4.5]decane] showed an IC50 of 10 nM.
As to `CC1=C(N2CCC3(CCN(C[C@H](O)c4cnc(-n5cnnn5)nc4C)CC3)C2=O)COC1=O` [Example 85, 8-{(2R)-2-hydroxy-2-[4-methyl-2-(1H-tetrazol-1-yl)pyrimidin-5-yl]ethyl}-2-(4-methyl-5-oxo-2,5-dihydrofuran-3-yl)-1-oxo-2-aza-8-azoniaspiro[4.5]decane], the IC50 was found to be 30 nM.
`CC1=C(N2CCC3(CCN(C[C@@H](O)c4cnc(-n5cnnn5)nc4C)CC3)C2=O)COC1=O` [Example 86, 8-{(2S)-2-hydroxy-2-[4-methyl-2-(1H-tetrazol-1-yl)pyrimidin-5-yl]ethyl}-2-(4-methyl-5-oxo-2,5-dihydrofuran-3-yl)-1-oxo-2-aza-8-azoniaspiro[4.5]decane] displayed an IC50 of 40 nM.
In turn, `CC1=C(N2CCC3(CCN(C[C@H](O)c4cnc(-n5cnnn5)c(C)n4)CC3)C2=O)COC1=O` [Example 87, 8-{(2S)-2-hydroxy-2-[6-methyl-5-(1H-tetrazol-1-yl)pyrazin-2-yl]ethyl}-2-(4-methyl-5-oxo-2,5-dihydrofuran-3-yl)-1-oxo-2-aza-8-azoniaspiro[4.5]decane] registered a 50% inhibitory concentration (IC50) of 50 nM.
Next, `CC1=C(N2CCC3(CCN(C[C@@H](O)c4cnc(-n5cnnn5)c(C)n4)CC3)C2=O)COC1=O` [Example 88, 8-{(2R)-2-hydroxy-2-[6-methyl-5-(1H-tetrazol-1-yl)pyrazin-2-yl]ethyl}-2-(4-methyl-5-oxo-2,5-dihydrofuran-3-yl)-1-oxo-2-aza-8-azoniaspiro[4.5]decane]: 40 nM; `COc1cc(-n2cnnn2)ncc1[C@@H](O)CN1CCC2(CC1)CCN(C1=C(C)C(=O)OC1)C2=O` [Example 93, 8-{(2R)-2-hydroxy-2-[4-methoxy-6-(1H-tetrazol-1-yl)pyridin-3-yl]ethyl}-2-(4-methyl-5-oxo-2,5-dihydrofuran-3-yl)-1-oxo-2-aza-8-azoniaspiro[4.5]decane]: 30 nM.
Next, `COc1cc(-n2cnnn2)ncc1[C@H](O)CN1CCC2(CC1)CCN(C1=C(C)C(=O)OC1)C2=O` [Example 94, 8-{(2S)-2-hydroxy-2-[4-methoxy-6-(1H-tetrazol-1-yl)pyridin-3-yl]ethyl}-2-(4-methyl-5-oxo-2,5-dihydrofuran-3-yl)-1-oxo-2-aza-8-azoniaspiro[4.5]decane]: 20 nM.
Next, `CC1=C(N2CCC3(CCN(C[C@H](O)c4ccc(-n5cnnn5)c(C#N)c4)CC3)C2=O)COC1=O` [Example 95, 8-{(2R)-2-[3-cyano-4-(1H-tetrazol-1-yl)phenyl]-2-hydroxyethyl}-2-(4-methyl-5-oxo-2,5-dihydrofuran-3-yl)-1-oxo-2-aza-8-azoniaspiro[4.5]decane]: 50 nM; `CC1=C(N2CCC3(CCN(C[C@@H](O)c4ccc(-n5cnnn5)c(C#N)c4)CC3)C2=O)COC1=O` [Example 96, 8-{(2S)-2-[3-cyano-4-(1H-tetrazol-1-yl)phenyl]-2-hydroxyethyl}-2-(4-methyl-5-oxo-2,5-dihydrofuran-3-yl)-1-oxo-2-aza-8-azoniaspiro[4.5]decane]: 70 nM; `CC1=C(N2CC(=O)C3(CCN(C[C@H](O)c4ccc(-n5cnnn5)nc4)CC3)C2=O)COC1=O` [Example 97, 8-{(2R)-2-hydroxy-2-[6-(1H-tetrazol-1-yl)pyridin-3-yl]ethyl}-2-[4-methyl-5-oxo-2,5-dihydrofuran-3-yl)-1,4-dioxo-2-aza-8-azoniaspiro[4.5]decane]: 20 nM.
Regarding `CC1=C(N2CCC3(CCN(C[C@H](O)c4ncc(-n5cnnn5)nc4C)CC3)C2=O)COC1=O` [Example 98, 8-{(2S)-2-hydroxy-2-[3-methyl-5-(1H-tetrazol-1-yl)pyrazin-2-yl]ethyl}-2-(4-methyl-5-oxo-2,5-dihydrofuran-3-yl)-1-oxo-2-aza-8-azoniaspiro[4.5]decane], it took 40 nM to reach half-maximal inhibition (IC50).
The figure for `CC1=C(N2CCC3(CCN(C[C@@H](O)c4ncc(-n5cnnn5)nc4C)CC3)C2=O)COC1=O` [Example 99, 8-{(2R)-2-hydroxy-2-[3-methyl-5-(1H-tetrazol-1-yl)pyrazin-2-yl]ethyl}-2-(4-methyl-5-oxo-2,5-dihydrofuran-3-yl)-1-oxo-2-aza-8-azoniaspiro[4.5]decane] is 50 nM; for `CC1=C(N2CCC3(CC4CN(C)CC(C3)N4C[C@H](O)c3ccc(-n4cnnn4)nc3)C2=O)COC1=O` (stereo partly drawn) [Example 112, (1R,5R,7R,9R)-9-{(2R)-2-hydroxy-2-[6-(1H-tetrazol-1-yl)pyridin-3-yl]ethyl}-7-methyl-1′-(4-methyl-5-oxo-2,5-dihydrofuran-3-yl)-2′-oxospiro[7,9-diazoniabicyclo[3.3.1]nonane-3,3′-pyrrolidine]] it is 410 nM.

The values above are taken from patent US9765074B2, “Inhibitors of the renal outer medullary potassium channel” (Merck Sharp & Dohme Corp., priority 2013, dated 2017).
